Entries after “also recorded” stand apart in the source; their conditions may differ.
Legend:
[1] = system: retinal neovascularization; conditions: intravitreal injection; hypoxic mouse model; cited from earlier work
[2] = system: Ad-N1IC-transduced HUVEC; experiment: Notch (Ad-N1IC)-induced HUVEC budding; assay type: cell-based, human
Procedure: HUVEC were transduced with either Ad-LacZ or Ad-N1IC at 40 MOI. FIGS. 23A-23C show the effect of inhibitors for receptor tyrosine kinases on Notch-induced HUVEC budding. FIG. 23A is a photograph of budding of Ad-N1IC-transduced HUVEC treated with PD166866, ZD1893 at 1 μM and SU5416 at 0.5 μM. […] FIGS. 23D-E show induction of Flt-1 expression in Ad-N1IC-transduced HUVEC. […] FIGS. 23F-G show promotion of Notch-induced HUVEC budding with PlGF stimulation. Ad-N1IC-transduced HUVEC were cultured on collagen gel with SFM, instead of complete medium, in the absence or presence of 50 ng/ml PlGF. […] FIGS. 23H-I show the effect of Flt-1 siRNA transfection on Flt1 expression. Ad-N1IC-transduced HUVEC were transfected with 200 pmol of either control (CT) or Flt-1 siRNA. […] Ad-N1IC-transduced HUVEC were transfected with either 100 or 200 pmol of siRNA and cultured on collagen gel for 2 days.
Either Ad-LacZ or Ad-N1IC-HUVEC at a MOI of 40 pfu/cell were cultured on collagen gel for 5 days in the absence or presence of GM6001 at 50 μm.
For making collagen gels, an ice-cold solution of porcine type I collagen (Nitta gelatin, Tokyo, Japan) was mixed with 10×RPMI1640 medium and neutralization buffer at the ratio of 8:1:1. 400 μl aliquots of collagen gel were then added to 24-well plates and allowed to gel for at least 1 hour at 37° C. Following adenoviral infection (above), HUVEC was harvested and plated at 1.3×10^5 cells per well onto the top of the collagen gel in 24-well plates in 0.8 ml of EGM2 medium. HUVEC became nearly confluent 48 hours after plating. After seeding, medium was changed every 2 days for 1 week. Sprouting was observed and photographs taken after 8 days with an Olympus digital camera mounted to a microscope. For quantification of the number of sprouts, 5 fields per each well were randomly selected and sprouting was counted under microscopy in a blind manner by two investigators.

[3] = system: CBF1 promoter activity in Ad-VEGF-infected HUVEC; experiment: VEGF-induced Notch signaling, CBF1 (CSL) promoter reporter in HUVEC; assay type: cell-based, human; conditions: SU5416 treatment of Ad-VEGF-transduced HUVEC
Procedure: To determine VEGF-induced Notch signaling, HUVEC which were infected with adenovirus were used. HUVEC plated 1-day prior in 6 well plates at 8.0×10^5 were infected with either Ad-LacZ as control or Ad-VEGF at indicated m.o.i. in the presence or absence of Ad-N1ECD/Fc. Two days after infection, infected HUVEC were re-seeded into 24-well plate at 1.5×10^5 cell in triplicate and cultured for 24 hours, and then transfected with 12.5 ng pRL-SV40 (Promega) and 137.5 ng pGA981-6 using Effectene transfection reagent (Qiagen). Cells were harvested either 1 or 2 days post-transfection and luciferase activity was determined by using the Dual-Luciferase® Reporter Assay System (Promega).
One can measure Notch signaling function by measuring transcriptional activity of CBF1 promoter, which is activated by binding of Notch-IC to CBF1. We measured CBF1 promoter activity in HUVEC which was infected with adenovirus encoding VEGF-165 at different MOI (FIG. 6). Induction of CBF1 promoter was clearly detected in Ad-VEGF-infected HUVEC, compared to Ad-LacZ-infected cells in the MOI dependent manner. […] Thus VEGF induced Notch signaling activity.

[4] = system: VEGF induced retinal microvascular permeability and vasoconstriction; conditions: subcutaneous injection; diabetic rat model; cited from earlier work
[5] = system: Jagged1 and Dll1 expression in Mm5MT-FGF4 cells; experiment: Quantitative RT-PCR of Notch ligands in Mm5MT-FGF4 transfectants; assay type: cell-based, mouse; conditions: 1 μm PD166866, 7 days
Procedure: Mm5MT transfectants were cultured 7 days with vehicle or 1 μm PD166866 (inhibitor of FGF receptor-kinase), total RNA isolated (RNeasy mini-kit, Qiagen, Valencia, Calif.), and first-strand cDNA synthesized (SuperScript™ First-Strand Synthesis System, Invitrogen). Quantitative RT-PCR for β-actin, FGF4, Jagged1, Dll1, and Dll4 (SYBER Green PCR Master Mix, 7300 Real Time PCR; Applied Biosystems, Foster City, Calif.) was performed in triplicate and values normalized for β-actin. Values are shown for fold induction compared to controls (primer sequences available on request).

[6] = system: Ad-Notch4 transduced HUVEC; experiment: Endothelial co-culture morphogenesis assay (Notch4-induced extensions on fibrin gel); assay type: cell-based, human; conditions: 200 nM compound E vs vehicle
Procedure: HUVEC morphogenesis was assessed as described (11), modified by adding co-culturing of Ad-Notch4 transduced HUVEC with Notch1 decoy- or Fc-HUVEC transfectants. Ad-GFP at 10 m.o.i. was co-transduced in HUVECs with Ad-LacZ or Ad-Notch4 at 30 m.o.i and 48 h later seeded on fibrin gels (24-well plates, 1.5×10^4 cells/well). Stable HUVEC-mock (HUVEC-X), HUVEC-Fc, or HUVEC-N1ECDFc transfectants were seeded at 1.35×10^5 cells/well, and vehicle or 200 nM compound E added 3 h later. Seven days later, HUVEC morphogenesis was calculated as the number of GFP-positive cells with processes compared to total GFP-positive cells/field.

[7] = system: C2C12 cells; experiment: C2C12 myoblast differentiation; assay type: cell-based; conditions: C2C12 transduced with Foxo1-ADA
Procedure: FIGS. 38A-38C These Figures show the quantitative analysis of C2C12 differentiation. […] Results from differentiation experiments were analyzed by scoring the number of Myosin-immunostained cells as percentage of all DAPI-positive cells. […] We carried out reporter gene assays using the canonical Foxo1-responsive Igfbp1 promoter (left panel) and the Hes1 promoter (right panel) in cells co-transfected with Foxo1-ADA or DBD-Foxo1ADA. […] An asterisk indicates P<0.01 by ANOVA.
C2C12 cells were differentiated as described (3, 4). Foxo1-ADA, Notch1-IC, Jagged1, Csl and Notch decoy adenoviral and mammalian expression vectors have been described (36, 51). We generated retroviruses expressing Foxo1-ADA and Notch1-IC using the pQCXIH vector. To generate Notch decoy (pAdlox Notch1ECD-Fc), the extracellular domain of Notch1(bp 241-4229, GenBank accession# X57405) was fused in frame with human IgG Fc tag and cloned into pAdlox. Retroviral supernatant was produced from cells transiently co-transfected with pVSV-G vector and designated pQCXIH vector into GP2-293 cells (BD Bioscience). To generate the DNA binding-deficient Foxo1, we replaced N208 and H212 with alanine and arginine, respectively, using QuikChange Mutagenesis Kit (Stratagene). The mutations were then cloned in the backbone of the Foxo1-ADA mutant. […]

[8] = Ad-N1IC at 40 MOI, receptor tyrosine kinase inhibitors at 1 μM

Clc1ccc(Nc2nnc(Cc3ccncc3)c3ccccc23)cc1 [PTK/ZK]
retinal neovascularization [1]: reduces retinal neovascularization

CNC(=O)[C@H](Cc1c[nH]c2ccccc12)NC(=O)[C@@H](CC(=O)NO)CC(C)C [GM6001]
budding of Ad-N1IC-HUVEC ([2]; GM6001 at 50 μm, 5 days, collagen and fibrin gel): clearly decreased budding of Ad-N1IC-HUVEC

Cc1cc(C)c(/C=C2\C(=O)Nc3ccccc32)[nH]1 [SU5416]
VEGF-induced CSL-luciferase reporter activity [3]: decreased VEGF-induced CSL-luciferase reporter activity
budding of Ad-N1IC-HUVEC [2, 8]: clearly inhibited
viability of Ad-N1IC-HUVEC (dose-dependency of SU5416) ([2]; lower concentrations of SU5416): less reduction of viability at lower concentrations
VEGF induced retinal microvascular permeability and vasoconstriction [4]: suppresses VEGF induced retinal microvascular permeability and vasoconstriction

COc1cc(OC)cc(-c2cc3cnc(N)nc3nc2NC(=O)NC(C)(C)C)c1 [PD166866]
budding of Ad-N1IC-HUVEC [2, 8]: Neither PD166866 or ZD1893 affected budding
FGF4-induced Jagged1 and Dll1 expression [5]: suppressed induction of both Jagged1 and Dll1; also recorded: reduction of Notch ligand expression

C[C@H](NC(=O)Cc1cc(F)cc(F)c1)C(=O)N[C@H]1N=C(c2ccccc2)c2ccccc2N(C)C1=O [Compound E]
Notch4-induced HUVEC extensions ([6]; p<0.0001): clearly inhibited extensions
Notch4-induced HUVEC extensions ([6]; p<0.0001, listed as compound E): blocks Notch4-induced extensions
rescue of Foxo1-ADA inhibition of myoblast differentiation [7]: also rescued Foxo1-ADA inhibition of myoblast differentiation

B1: PlGF: a selective ligand for Flt1 (protein, UniProt P49763 19-221, looked up)
Placenta growth factor: LPAVPPQQWALSAGNGSSEVEVVPFQEVWGRSYCRALERLVDVVSEYPSEVEHMFSPSCVSLLRCTGCCGDENLHCVPVETANVTMQLLKIRSGDRPSYVELTFSQHVRCECRHSPGRQSPDMPGDFRADAPSFLPPRRSLPMLFRMEWGCALTGSQSAVWPSSPVPEEIPRMHPGRNGKKQQRKPLREKMKPERCGDAVPRR
increase in HUVEC buds containing multiple filopodia ([2]; 50 ng/ml PlGF, SFM): 250%
increase in number of Ad-N1IC-HUVEC buds ([2]; 50 ng/ml PlGF, SFM, compared to the absence of PlGF): 150%

— US9127085B2, “Compositions of humanized notch fusion proteins and methods of treatment” (THE TRUSTEES OF COLUMBIA UNIVERSITY IN THE CITY OF NEW YORK, priority 2007, dated 2015)
